Experimental data as given in ChEMBL document CHEMBL1123117, “Synthesis and antiinflammatory and analgesic activity of 5-aroyl-1,2-dihydro-3H-pyrrolo[1,2-a]pyrrole-1-carboxylic acids and related compounds” (J Med Chem, 1985).

What was measured:
physchem [1] = details: octanol/water
Description: Partition coefficient (logP) (HPLC)

physchem [2] = assay: physchem
Description: Dissociation constant (pKa)

Rattus norvegicus [3] = organism: Rattus norvegicus; assay: animal or person
Description: Effective dose for cotton pellet assay

in vivo = details: rat
Rattus norvegicus [4] = organism: Rattus norvegicus; assay: animal or person; details: 168 h, read-out: MED
Description: Minimum effective dose causing gastrointestinal erosion using seven-day chronic assay.

Rattus norvegicus [5] = organism: Rattus norvegicus; assay: animal or person; remark: listed apart in the source
Description: Effective dose for rat paw assay

Rattus norvegicus [6] = organism: Rattus norvegicus; assay: animal or person; remark: listed apart in the source
Description: Effective dose for adjuvant arthritis assay

Mus musculus [7] = organism: Mus musculus; assay: animal or person
Description: Effective dose for mouse writhing assay

Rattus norvegicus [8] = organism: Rattus norvegicus; assay: Antiinflammatory activity using adjuvant arthritis assay; type: functional
Rattus norvegicus [9] = organism: Rattus norvegicus; assay: animal or person; details: 168 h
Description: Effective dose causing 50 % gastrointestinal erosion using seven-day chronic assay.

[10] = Therapeutic ratio as the ratio of MED value to that of ED30 for the carrageenan rat paw assay.; type: ADME; details: read-out: Therapeutic ratio
Mus musculus [11] = organism: Mus musculus; assay: […] activity using mouse writhing assay.; type: functional

Row | SMILES | logP (physchem [1]) | further results
1 | O=C(c1ccccc1)c1ccc2n1CCCCC2C(=O)O (configuration not stated) | 3.17 | –
2 | O=C(c1cccc(O)c1)c1ccc2n1CCC2C(=O)O (configuration not stated) | 2.18 | –
3 | O=C(c1cccc(Cl)c1)c1ccc2n1CCCC2C(=O)O (configuration not stated) | 2.61 | –
4 | O=C(c1ccc(F)cc1)c1ccc2n1CCCCC2C(=O)O (configuration not stated) | 3.32 | –
5 | CSc1ccc(C(=O)c2ccc3n2CCC3C(=O)O)cc1 (configuration not stated) | 3.68 | –
6 | O=C(c1c(F)cccc1F)c1ccc2n1CCC2C(=O)O (configuration not stated) | 2.47 | –
7 | O=C(c1ccc(F)cc1)c1ccc2n1CCC2C(=O)O (configuration not stated) | 2.82 | pKa (physchem [2]): 3.51; ED30 (Rattus norvegicus [3]): 3 mg/kg; selectivity ratio (in vivo): 20; minimal effective dose (Rattus norvegicus [4]): 5 mg/kg/day; ED30 (Rattus norvegicus [5]): 15 mg/kg; ED50 (Rattus norvegicus [6]): 1.7 mg/kg; ED50 (Mus musculus [7]): 70 mg/kg; Activity (Rattus norvegicus [8]): 1; ED50 (Rattus norvegicus [9]): 13 mg/kg/day
8 | COc1ccc(C(=O)c2ccc3n2CCCC3C(=O)O)cc1 (configuration not stated) | 2.9 | –
9 | CC(=O)c1ccc(C(=O)c2ccc3n2CCC3C(=O)O)cc1 (configuration not stated) | 2.27 | –
10 | O=C(c1ccc2ccccc2c1)c1ccc2n1CCC2C(=O)O (configuration not stated) | 3.97 | pKa (physchem [2]): 3.44
11 | O=C(c1cccc([N+](=O)[O-])c1)c1ccc2n1CCC2C(=O)O (configuration not stated) | 2.47 | –
12 | CC(C)(C)C(=O)c1ccc2n1CCC2C(=O)O (configuration not stated) | 2.6 | pKa (physchem [2]): 3.57
13 | COc1cccc(C(=O)c2ccc3n2CCC3C(=O)O)c1 (configuration not stated) | 2.74 | –
14 | O=C(c1ccc(-c2ccccc2)cc1)c1ccc2n1CCC2C(=O)O (configuration not stated) | 4.27 | –
15 | CSc1ccc(C(=O)c2ccc3n2CCCC3C(=O)O)cc1 (configuration not stated) | 3.54 | –
16 | Cc1ccc(C(=O)c2ccc3n2CCCC3C(=O)O)cc1 (configuration not stated) | 3.35 | –
17 | O=C(c1ccc(Br)cc1)c1ccc2n1CCC2C(=O)O (configuration not stated) | 3.6 | –
18 | Cc1ccc(C(=O)c2ccc3n2CCC3C(=O)O)cc1 (configuration not stated) | 3.24 | pKa (physchem [2]): 3.44; ED30 (Rattus norvegicus [3]): 3 mg/kg; minimal effective dose (Rattus norvegicus [4]): 3 mg/kg/day; ED30 (Rattus norvegicus [5]): 15 mg/kg; ED50 (Rattus norvegicus [6]): 1.7 mg/kg; ED50 (Mus musculus [7]): 70 mg/kg; selectivity ratio [10]: 8; ED50 (Rattus norvegicus [9]): 15 mg/kg/day
19 | Cc1cccc(C(=O)c2ccc3n2CCC3C(=O)O)c1 (configuration not stated) | 3.23 | pKa (physchem [2]): 3.44
20 | CS(=O)(=O)c1ccc(C(=O)c2ccc3n2CCCC3C(=O)O)cc1 (configuration not stated) | 1.53 | –
21 | O=C(c1c(F)c(F)c(F)c(F)c1F)c1ccc2n1CCC2C(=O)O (configuration not stated) | 3.24 | –
22 | O=C(c1cccc(C(F)(F)F)c1)c1ccc2n1CCC2C(=O)O (configuration not stated) | 3.69 | –
23 | O=C(c1ccc(Cl)cc1Cl)c1ccc2n1CCC2C(=O)O (configuration not stated) | 3.56 | –
24 | O=C(c1ccccc1I)c1ccc2n1CCC2C(=O)O (configuration not stated) | 2.98 | –
25 | C=Cc1ccc(C(=O)c2ccc3n2CCC3C(=O)O)cc1 (configuration not stated) | 3.47 | ED30 (Rattus norvegicus [3]): 3 mg/kg; selectivity ratio (in vivo): 18; minimal effective dose (Rattus norvegicus [4]): 5 mg/kg/day; Activity (Mus musculus [11]): ~200; ED30 (Rattus norvegicus [5]): 15 mg/kg; ED50 (Rattus norvegicus [6]): 1.7 mg/kg; ED50 (Mus musculus [7]): 70 mg/kg; ED50 (Rattus norvegicus [9]): 13 mg/kg/day
26 | O=C(c1ccc2n1CCC2C(=O)O)C1CCC1 (configuration not stated) | 2.41 | pKa (physchem [2]): 3.54
27 | O=C(c1ccccc1Cl)c1ccc2n1CCC2C(=O)O (configuration not stated) | 2.71 | pKa (physchem [2]): 4.33
28 | N#Cc1ccc(C(=O)c2ccc3n2CCC3C(=O)O)cc1 (configuration not stated) | 2.21 | –

Row | SMILES | logP (physchem [1]) | further results
29 | O=C(c1ccc(F)cc1)c1ccc2n1CCCC2C(=O)O (configuration not stated) | 2.94 | –
30 | CSc1ccc(C(=O)c2ccc3n2CCCCC3C(=O)O)cc1 (configuration not stated) | 3.92 | –
31 | C[S+]([O-])c1ccc(C(=O)c2ccc3n2CCC3C(=O)O)cc1 (configuration not stated) | 1.08 | –
32 | C#Cc1ccc(C(=O)c2ccc3n2CCC3C(=O)O)cc1 (configuration not stated) | 3.33 | –
33 | O=C(Cc1ccccc1)c1ccc2n1CCC2C(=O)O (configuration not stated) | 2.52 | –
34 | O=C(c1ccc2c(c1)OCO2)c1ccc2n1CCC2C(=O)O (configuration not stated) | 3.61 | –
35 | C#CCOc1ccc(C(=O)c2ccc3n2CCC3C(=O)O)cc1 (configuration not stated) | 3.63 | –
36 | Cc1ccccc1C(=O)c1ccc2n1CCC2C(=O)O (configuration not stated) | 2.9 | pKa (physchem [2]): 3.44
37 | O=C(c1cccc(F)c1)c1ccc2n1CCC2C(=O)O (configuration not stated) | 2.9 | pKa (physchem [2]): 3.46
38 | O=C(c1ccccc1)c1ccc2n1CC(C(=O)O)C2 (configuration not stated) | 2.57 | –
39 | O=C(c1ccccc1O)c1ccc2n1CCC2C(=O)O (configuration not stated) | 2.94 | –
40 | O=C(c1ccc(C(F)(F)F)cc1)c1ccc2n1CCC2C(=O)O (configuration not stated) | 3.71 | –
41 | CS(=O)(=O)c1ccc(C(=O)c2ccc3n2CCC3C(=O)O)cc1 (configuration not stated) | 1.41 | –
42 | O=C(c1ccc([N+](=O)[O-])cc1)c1ccc2n1CCC2C(=O)O (configuration not stated) | 2.48 | –
43 | CCOc1ccc(C(=O)c2ccc3n2CCC3C(=O)O)cc1 (configuration not stated) | 3.3 | pKa (physchem [2]): 3.46
44 | O=C(c1ccc(Cl)cc1)c1ccc2n1CCCC2C(=O)O (configuration not stated) | 3.6 | –
45 | O=C(c1ccc(Cl)cc1)c1ccc2n1CC(C(=O)O)C2 (configuration not stated) | 3.45 | –
46 | O=C(c1ccc(F)cc1F)c1ccc2n1CCC2C(=O)O (configuration not stated) | 2.59 | –
47 | CCOc1cccc(C(=O)c2ccc3n2CCC3C(=O)O)c1 (configuration not stated) | 3.31 | pKa (physchem [2]): 3.46
48 | N#Cc1cccc(C(=O)c2ccc3n2CCC3C(=O)O)c1 (configuration not stated) | 2.14 | –
49 | C=CCOc1ccc(C(=O)c2ccc3n2CCC3C(=O)O)cc1 (configuration not stated) | 3.48 | –
50 | CC(C)Oc1ccc(C(=O)c2ccc3n2CCC3C(=O)O)cc1 (configuration not stated) | 3.38 | pKa (physchem [2]): 3.43
51 | O=C(c1cccc(Cl)c1)c1ccc2n1CCC2C(=O)O (configuration not stated) | 3.48 | pKa (physchem [2]): 3.44
52 | CC(C)C(=O)Nc1cccc(C(=O)c2ccc3n2CCC3C(=O)O)c1 (configuration not stated) | 2.57 | –
53 | COc1ccc(C(=O)c2ccc3n2CCC3C(=O)O)cc1 (configuration not stated) [ANIROLAC] | 2.81 | pKa (physchem [2]): 3.55; ED30 (Rattus norvegicus [3]): 3 mg/kg; selectivity ratio (in vivo): 39; minimal effective dose (Rattus norvegicus [4]): 7 mg/kg/day; ED30 (Rattus norvegicus [5]): 15 mg/kg; ED50 (Rattus norvegicus [6]): 1.7 mg/kg; ED50 (Mus musculus [7]): 70 mg/kg; ED50 (Rattus norvegicus [9]): 22 mg/kg/day
54 | O=C(c1ccccc1)c1ccc2n1CCC2C(=O)O (configuration not stated) [KETOROLAC] | 2.72 | pKa (physchem [2]): 3.49; ED30 (Rattus norvegicus [3]): 3 mg/kg; minimal effective dose (Rattus norvegicus [4]): 5 mg/kg/day; ED30 (Rattus norvegicus [5]): 15 mg/kg; ED50 (Rattus norvegicus [6]): 1.7 mg/kg; ED50 (Mus musculus [7]): 70 mg/kg; selectivity ratio [10]: 18; ED50 (Rattus norvegicus [9]): 13 mg/kg/day
55 | O=C(c1ccc(O)cc1)c1ccc2n1CCC2C(=O)O (configuration not stated) [P-HYDROXY KETOROLAC] | 2.17 | –
